Laboratory results published in patent US10681909B2, “Herbicidal triazoles” (FMC Corporation, priority 2014, dated 2020).

How the values were obtained:
chamomile = assay: Test D postemergence; type: in vivo, Matricaria inodora; conditions: scale 0 to 100
Source text: (§1) Seeds of plant species selected from bluegrass (annual bluegrass, Poa annua), blackgrass (Alopecurus myosuroides), canarygrass (Phalaris minor), chickweed (common chickweed, Stellaria media), galium (catchweed bedstraw, Galium aparine), bromegrass, down (downy bromegrass, Bromus tectorum), Russian thistle (Salsola kali), field poppy (Papaver rhoeas), field violet (Viola arvensis), foxtail, green (green foxtail, Setaria viridis), deadnettle (henbit deadnettle, Lamium amplexicaule), ryegrass, Ital. (Italian ryegrass, Lolium multiflorum), kochia (Kochia scoparia), lambsquarters (Chenopodium album), oilseed rape (Brassica napus), pigweed (Amaranthus retroflexus), chamomile (scentless chamomile, Matricaria inodora), speedwell (bird's-eye speedwell, Veronica persica), barley, spring (spring barley, Hordeum vulgare), wheat, spring (spring wheat, Triticum aestivum), buckwheat, wild (wild buckwheat, Polygonum convolvulus), wild mustard (Sinapis arvensis), oat, wild (wild oat, Avena fatua), radish, wild (wild radish, Raphanus raphanistrum), […]), barley, winter (winter barley, Hordeum vulgare), and wheat, winter (winter wheat, Triticum aestivum) were planted into a silt loam soil and treated preemergence with test chemicals formulated in a non-phytotoxic solvent mixture which included a surfactant. At the same time, these species were planted in pots containing Sunshine Redi-Earth® planting medium comprising spaghnum peat moss, vermiculite, starter nutrients and dolomitic limestone and treated with postemergence applications of the test chemicals formulated in the same manner. Plants ranged in height from 2 to 18 cm (1- to 4-leaf stage). Treated plants and controls were maintained in a controlled growth environment for 14 to 21 d after which time all species were compared to controls and visually evaluated. […] A dash (-) response means no test result.

pigweed = assay: Test D preemergence; type: in vivo, Amaranthus retroflexus; conditions: for Plant response rating (0 to 100), Pigweed: 16 g ai/ha, 0 is no effect, 100 is complete control; for Plant response rating: Pigweed: scale 0 to 100
Source text: as §1

field poppy [1] = assay: Test D preemergence; type: in vivo, Papaver rhoeas; conditions: for Plant response rating (0 to 100), Field Poppy: 16 g ai/ha, 0 is no effect, 100 is complete control; for Plant response rating: Field Poppy: scale 0 to 100
Source text: as §1

ragweed = assay: Test A preemergence; type: in vivo, Ambrosia elatior; conditions: 0 to 100 scale (0 no effect, 100 complete control)
Method in brief: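 Visual 0–100 ratings (0 no effect, 100 complete control) made roughly 10 days after treatment, comparing greenhouse-grown plants to untreated controls. Formulated test chemicals, with surfactant, went either as directed soil spray at planting or onto 2–10 cm seedlings bearing one to two leaves.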

waterhemp = assay: Test C preemergence; type: in vivo, Amaranthus rudis; conditions: for Waterhemp plant response rating (0 to 100): Preemergence, visual rating after 13 to 15 d; for Plant response rating (scale of 0 to 100 where 0 is no effect and 100 is complete control): Waterhemp, preemergence, 250 g ai/ha
Source text: Seeds of plant species selected from blackgrass (Alopecurus myosuroides), ryegrass, Italian (Italian ryegrass, Lolium multiflorum), wheat (winter wheat, Triticum aestivum), galium (catchweed bedstraw, Galium aparine), corn (Zea mays), crabgrass, large (large crabgrass, Digitaria sanguinalis), foxtail, giant, (giant foxtail, Setaria faberii), johnsongrass (Sorghum halepense), lambsquarters (Chenopodium album), morningglory (Ipomoea coccinea), nutsedge, yellow (yellow nutsedge, Cyperus esculentus), pigweed (Amaranthus retroflexus), ragweed (common ragweed, Ambrosia elatior), soybean (Glycine max), barnyardgrass (Echinochloa crus-galli), oilseed rape (Brassica napus), waterhemp (common waterhemp, Amaranthus rudis), and velvetleaf (Abutilon theophrasti) were planted into a blend of loam soil and sand and treated preemergence with test chemicals formulated in a non-phytotoxic solvent mixture which included a surfactant. At the same time, plants selected from these crop and weed species and also chickweed (common chickweed, Stellaria media), oat, wild (wild oat, Avena fatua), and kochia (Kochia scoparia), were planted in pots containing Sunshine Redi-Earth® planting medium comprising spaghnum peat moss, vermiculite, starter nutrients and dolomitic limestone and treated with postemergence applications of test chemicals formulated in the same manner. Plants ranged in height from 2 to 18 cm (1- to 4-leaf stage) for postemergence treatments. […] A dash (-) response means no test result.

field violet = assay: Test D postemergence; type: in vivo, Viola arvensis; conditions: scale 0 to 100
Source text: as §1

foxtail, green = assay: Test D postemergence; type: in vivo, Setaria viridis; conditions: scale 0 to 100
Source text: as §1

Russian thistle = assay: Test D postemergence; type: in vivo, Salsola kali; conditions: scale 0 to 100
Source text: as §1

field poppy [2] = assay: Test D postemergence; type: in vivo, Papaver rhoeas; conditions: scale 0 to 100
Source text: as §1

speedwell = assay: Test D postemergence; type: in vivo, Veronica persica; conditions: scale 0 to 100
Source text: as §1

deadnettle = assay: Test D postemergence; type: in vivo, Lamium amplexicaule; conditions: scale 0 to 100
Source text: as §1

Structure (SMILES)	Plant response rating: Chamomile (chamomile; 16 g ai/ha)	Plant response rating: Chamomile (chamomile; 31 g ai/ha)	Plant response rating: Chamomile (chamomile; 62 g ai/ha)	Plant response rating: Chamomile (chamomile; 125 g ai/ha)	Plant response rating (0 to 100), Pigweed (pigweed)	Plant response rating: Pigweed (pigweed; 62 g ai/ha)	Plant response rating: Pigweed (pigweed; 125 g ai/ha)	Plant response rating (0 to 100), Field Poppy (field poppy [1])	Plant response rating: Field Poppy (field poppy [1]; 62 g ai/ha)	Plant response rating: Field Poppy (field poppy [1]; 125 g ai/ha)	Plant response rating, Ragweed (ragweed; 125 g ai/ha)	Waterhemp plant response rating (0 to 100) (waterhemp; 31 g ai/ha)	Waterhemp plant response rating (0 to 100) (waterhemp; 62 g ai/ha)	Plant response rating (scale of 0 to 100 where 0 is no effect and 100 is complete control) (waterhemp)	Plant response rating: Field Violet (field violet; 16 g ai/ha)	Plant response rating: Field Violet (field violet; 31 g ai/ha)	Plant response rating: Field Violet (field violet; 62 g ai/ha)	Plant response rating: Field Violet (field violet; 125 g ai/ha)	Plant response rating: Foxtail, Green (foxtail, green; 16 g ai/ha)	Plant response rating: Foxtail, Green (foxtail, green; 31 g ai/ha)	further results
Fc1ccc(-c2nc(OCC(F)(F)F)n(Cc3ccnc(C(F)(F)F)c3)n2)cc1 [Compound 30]	20	30	40	70	100	100	100	95	100	100	80	100	100	100	75	98	95	100	55	75	Plant response rating, Ragweed (ragweed; 500 g ai/ha, approx. 10 d): 80; Plant response rating: Foxtail, Green (foxtail, green; 62 g ai/ha): 85; Plant response rating: Foxtail, Green (foxtail, green; 125 g ai/ha): 90; Plant response rating: Russian Thistle (Russian thistle; 16 g ai/ha): 80; Plant response rating: Russian Thistle (Russian thistle; 31 g ai/ha): 90; Plant response rating: Russian Thistle (Russian thistle; 62 g ai/ha): 90; Plant response rating: Russian Thistle (Russian thistle; 125 g ai/ha): 90; Plant response rating: Field Poppy (field poppy [2]; 16 g ai/ha): 70; Plant response rating: Field Poppy (field poppy [2]; 31 g ai/ha): 90; Plant response rating: Field Poppy (field poppy [2]; 62 g ai/ha): 98; Plant response rating: Field Poppy (field poppy [2]; 125 g ai/ha): 100; Plant response rating: Speedwell (speedwell; 16 g ai/ha): 100; Plant response rating: Speedwell (speedwell; 31 g ai/ha): 100; Plant response rating: Speedwell (speedwell; 62 g ai/ha): 100; Plant response rating: Speedwell (speedwell; 125 g ai/ha): 100; Plant response rating: Deadnettle (deadnettle; 16 g ai/ha): 70; Plant response rating: Deadnettle (deadnettle; 31 g ai/ha): 75; Plant response rating: Deadnettle (deadnettle; 62 g ai/ha): 90; Plant response rating: Deadnettle (deadnettle; 125 g ai/ha): 100
FC(F)(F)COc1nc(-c2ccc(Cl)cc2)nn1Cc1ccnc(C(F)(F)F)c1 [Compound 31]	20	35	65	80	100	100	100	95	100	100	50	100	100	100	100	100	100	100	70	80	Plant response rating, Ragweed (ragweed; 500 g ai/ha): 70; Plant response rating: Foxtail, Green (foxtail, green; 62 g ai/ha): 80; Plant response rating: Foxtail, Green (foxtail, green; 125 g ai/ha): 85; Plant response rating: Russian Thistle (Russian thistle; 16 g ai/ha): 70; Plant response rating: Russian Thistle (Russian thistle; 31 g ai/ha): 80; Plant response rating: Russian Thistle (Russian thistle; 62 g ai/ha): 85; Plant response rating: Russian Thistle (Russian thistle; 125 g ai/ha): 90; Plant response rating: Field Poppy (field poppy [2]; 16 g ai/ha): 75; Plant response rating: Field Poppy (field poppy [2]; 31 g ai/ha): 80; Plant response rating: Field Poppy (field poppy [2]; 62 g ai/ha): 98; Plant response rating: Field Poppy (field poppy [2]; 125 g ai/ha): 100; Plant response rating: Speedwell (speedwell; 16 g ai/ha): 95; Plant response rating: Speedwell (speedwell; 31 g ai/ha): 90; Plant response rating: Speedwell (speedwell; 62 g ai/ha): 100; Plant response rating: Speedwell (speedwell; 125 g ai/ha): 100; Plant response rating: Deadnettle (deadnettle; 16 g ai/ha): 75; Plant response rating: Deadnettle (deadnettle; 31 g ai/ha): 75; Plant response rating: Deadnettle (deadnettle; 62 g ai/ha): 80; Plant response rating: Deadnettle (deadnettle; 125 g ai/ha): 95
CCOc1nc(-c2ccc(C(F)(F)F)cc2)nn1Cc1ccnc(C(F)(F)F)c1 [Compound 35, 4-[[5-ethoxy-3-[4-(trifluoromethyl)phenyl]-1H-1,2,4-triazole-1-yl]methyl]-2-(trifluoromethyl)pyridine]	70	75	95	100	100	100	100	100	100	100	50	100	100	100	90	100	100	100	70	80	Plant response rating, Ragweed (ragweed; 31 g ai/ha): 20; Plant response rating: Foxtail, Green (foxtail, green; 62 g ai/ha): 95; Plant response rating: Foxtail, Green (foxtail, green; 125 g ai/ha): 95; Plant response rating: Russian Thistle (Russian thistle; 16 g ai/ha): 70; Plant response rating: Russian Thistle (Russian thistle; 31 g ai/ha): 75; Plant response rating: Russian Thistle (Russian thistle; 62 g ai/ha): 80; Plant response rating: Russian Thistle (Russian thistle; 125 g ai/ha): 85; Plant response rating: Field Poppy (field poppy [2]; 16 g ai/ha): 80; Plant response rating: Field Poppy (field poppy [2]; 31 g ai/ha): 95; Plant response rating: Field Poppy (field poppy [2]; 62 g ai/ha): 95; Plant response rating: Field Poppy (field poppy [2]; 125 g ai/ha): 100; Plant response rating: Speedwell (speedwell; 16 g ai/ha): 75; Plant response rating: Speedwell (speedwell; 31 g ai/ha): 85; Plant response rating: Speedwell (speedwell; 62 g ai/ha): 90; Plant response rating: Speedwell (speedwell; 125 g ai/ha): 100; Plant response rating: Deadnettle (deadnettle; 16 g ai/ha): 55; Plant response rating: Deadnettle (deadnettle; 31 g ai/ha): 65; Plant response rating: Deadnettle (deadnettle; 62 g ai/ha): 75; Plant response rating: Deadnettle (deadnettle; 125 g ai/ha): 90
